Data from article PMC6241247, “Development and Application of an UHPLC-MS/MS Method for Comparative Pharmacokinetic Study of Eight Major Bioactive Components from Yin Chen Hao Tang in Normal and Acute Liver Injured Rats” (Evidence-based Complementary and Alternative Medicine : eCAM, 2018).

Legend:
[1] = Plasma pharmacokinetics after oral administration of YCHT in control (normal) rats, UHPLC-MS/MS; format: in vivo, Sprague-Dawley rats; conditions: for CL/F / Cmax / MRT last / MRT inf / Tmax / half-life: Sprague-Dawley
Excerpt: The validated method was used for the pharmacokinetic study.
P<0.05 represented statistical significance.

[2] = in vivo
Procedure: The quality control (QC) and plasma samples were analyzed by an Agilent 6470 triple quadrupole LC–MS system (Agilent Technologies, Inc., Santa Clara, CA, USA), which consists of an Agilent 1290 Infinity II system connected to a triple quadrupole MS analyzer with an Agilent Jet Stream technologies electrospray ionization (ESI) interface. The Agilent 1290 LC system is equipped with degasser (G7116B), high speed pump (G7120A) and multisampler (G7167B). The samples (2 μL) were injected into the LC system. A MassHunter workstation was applied for LC–MS control and data acquisition.
Chromatographic separation was conducted with a CAPCELL PAK ADME (2.1 mm × 100 mm, 3 μm; Shiseido Co., Ltd., Tokyo, Japan). The mobile phase included 0.1% formic acid (A) and methanol (B), and the flow rate was 0.3 mL/min. Iridoid glycosides and anthraquinones were detected in the isocratic elution, which was kept 80% B for 5.5 min in the negative mode. The others were separated in the positive mode with another gradient program, which was maintained at 45% B for 0.5 min, then increased to 95% B in 2 min, and maintained at 95% B until 4.5 min, and the post time is 2 min.
The optimal parameters for the ESI interface were as follows: nebulizer, 45 psi; dry gas, 10 L/min; dry temp, 350°C; sheath gas, 11 L/min; sheath gas temp, 350°C; capillary voltage, 4000 V (in the positive mode) and 3500 V (in the negative mode); and delta EMV, 200 V. The MS parameters for iridoid glycosides and anthraquinones were improved in the negative mode, and the MS parameters for the other analytes were improved in positive mode.
The animals were randomly divided into the control group (n = 6) and the model group (n = 6): the model rats, i.e., acute liver injury rats, were induced by intraperitoneal injections of CCl4 diluted with olive oil (1:1, v/v) at a dose of 1.5 mL/kg.bw every day for three days, and the rats in the control group were administered with olive oil.
After being thawed at room temperature, 100 μL plasma was put in a 1.5 mL centrifuge tube, and then 100 μL IS solution and 300 μL acetonitrile was added. After the mixture was vortexed for 1 min, it was centrifuged at 12000 rpm for 10 min at 4°C to precipitate the protein. Then the supernatant was transferred to another clean centrifuge tube, and evaporated to dryness under nitrogen stream, the residue was reconstituted in 50 μL methanol-water (1:1, v/v). After centrifuging at 12000 rpm for 10 min at 4°C again, a 2 μL aliquot of supernatant was injected for LC–MS/MS analysis.
The validated method was used for the pharmacokinetic study. Standard diet was withheld over night before oral administration of YCHT, but with free access to water. And YCHT (60 g/kg) was administered to the rats by gastric perfusion, equivalent to 10.09 mg/kg of scoparone, 0.49 mg/kg scopoletin, 17.16 mg/kg of geniposide, 9.86 mg/kg of rhein, 2.66 mg/kg of aloe-emodin, 2.24 mg/kg of chrysophanol, 0.83 mg/kg of emodin, and 0.58 mg/kg of physcion.
A series of blood samples (0.3 mL) were collected from the rats' postorbital venous plexuses at 0 (pre-dose), 5, 10, 15, 30, 45, 60, 90, 120, 240, 480, 600, 720 and 1440 min, and put into heparinized tubes. The heparinized plasma was immediately centrifuged to separate at 3000 g for 10 min and stored at −80°C before experiments. The analytes' concentrations in plasma were determined by LC–MS/MS methods described above.
The plasma concentrations were expressed as arithmetic mean ± standard deviation (SD). And the mean concentration–time curves were calculated and plotted by DAS (version 3.0, Bio Guider Co., Shanghai, China), and the PK parameters consist of elimination half-life (t1/2), area under the plasma concentration-time curve (AUC), and mean residence time (MRT). The maximum plasma concentrations (Cmax) and corresponding peak time (Tmax) were obtained from the observed data directly.

[3] = tested on: P-glycoprotein (P-gp); set-up: method as in PMID 25776492, PMID 26121397; conditions: cited from earlier work
[4] = rat, in vivo, control rats, oral YCHT 60 g/kg, plasma, n = 6, read-out: CLz/F (converted)
[5] = rat, in vivo, control rats, oral YCHT 60 g/kg, plasma, n = 6, read-out: Cmax
[6] = rat, in vivo, control rats, oral YCHT 60 g/kg, plasma, n = 6, read-out: MRT0–t
[7] = rat, in vivo, control rats, oral YCHT 60 g/kg, plasma, n = 6, read-out: MRT0–∞
[8] = rat, in vivo, control rats, oral YCHT 60 g/kg, plasma, n = 6, read-out: Tmax
[9] = rat, in vivo, control rats, oral YCHT 60 g/kg, plasma, n = 6, read-out: t 1/2 (converted)
[10] = control rats, oral YCHT 60 g/kg, plasma, n = 6
[11] = Sprague-Dawley, rat, in vivo, po
[12] = Sprague-Dawley, rat, in vivo, po, 60 g/kg
[13] = model (CCl4 liver injured) rats, oral YCHT 60 g/kg, plasma, n = 6
[14] = Fr = (AUCmodel/AUCcontrol)∗100%, oral YCHT 60 g/kg
[15] = Sprague-Dawley, rat, plasma, po, 60 g/kg

Row | SMILES | CL/F [1, 4] [mL/min/kg] | MRT last [1, 6] [h] | MRT inf [1, 7] [h] | AUC0–t [1, 10] [ug/L∗h] | AUC0–∞ [1, 10] [ug/L∗h] | CL/F [2, 12] [mL/min/kg] | Cmax [2, 12] [ng/mL] | MRT inf [2, 12] [h] | MRT last [2, 12] [h] | Tmax [2, 12] [h] | half-life [2, 12] [h] | AUC0–t [2, 13] | AUC0–∞ [2, 13] | CL/F ([1]; rat, in vivo, po, 60 g/kg) [mL/min/kg] | Cmax ([1]; rat, in vivo, po, 60 g/kg) [ng/mL] | MRT inf ([1]; rat, in vivo, po, 60 g/kg) [h] | MRT last ([1]; rat, in vivo, po, 60 g/kg) [h] | Tmax ([1]; rat, in vivo, po, 60 g/kg) [h] | half-life ([1]; rat, in vivo, po, 60 g/kg) [h] | Fr (relative bioavailability) [2, 14] [%] | other results
1 | Cc1cc(O)c2c(c1)C(=O)c1cc(O)cc(O)c1C2=O [Emodin] | 1160 | 4.94 ± 0.26 | 6.65 ± 1.99 | 10.41 ± 0.83 | 12.06 ± 1.53 | 1050 | 3.89 ± 0.89 | 6.64 ± 0.78 | 4.83 ± 0.25 | 0.17 ± 0.05 | 3.64 ± 0.79 | 11.66 ± 2.70 ug/L∗h | 13.49 ± 2.43 ug/L∗h |  |  |  |  |  |  |  | Cmax [1, 5]: 3.51 ± 0.59 ng/mL; Tmax [1, 8]: 0.2 ± 0.17 h; half-life [1, 9]: 3.33 ± 1.67 h; Fr (relative bioavailability) [2, 11]: 112.01%; P-gp substrate [3]: not P-gp substrates
2 | COc1cc2ccc(=O)oc2cc1O [Scopoletin] |  |  |  | 5.86 ± 0.50 | 7.41 ± 2.53 | 1100 | 3.34 ± 1.19 | 5.56 ± 0.63 | 4.81 ± 0.43 | 0.13 ± 0.05 | 2.2 ± 0.82 | 7.23 ± 1.84 ug/L∗h | 7.83 ± 2.00 ug/L∗h | 1180 | 3.53 ± 0.67 | 6.9 ± 4.2 | 4.4 ± 0.44 | 0.19 ± 0.04 | 3.62 ± 3.85 | 123.38 | P-gp substrate [3]: not P-gp substrates
3 | O=C1c2cccc(O)c2C(=O)c2c(O)cc(CO)cc21 [Aloe-emodin] | 737 | 3.34 ± 0.12 | 4.33 ± 0.84 | 54.61 ± 6.50 | 60.86 ± 6.68 | 283 | 36.7 ± 3.09 | 4.07 ± 0.4 | 3.68 ± 0.34 | 0.58 ± 0.3 | 1.98 ± 0.71 | 153.62 ± 18.13∗∗ ug/L∗h | 158.71 ± 19.26∗∗ ug/L∗h |  |  |  |  |  |  | 281.30 | Cmax [1, 5]: 15.2 ± 1.68 ng/mL; Tmax [1, 8]: 0.54 ± 0.19 h; half-life [1, 9]: 2.26 ± 1.15 h
4 | O=C(O)c1cc(O)c2c(c1)C(=O)c1cccc(O)c1C2=O [Rhein] |  |  |  | 2031.40 ± 385.58 | 2074.39 ± 387.77 | 31.2 | 1760 ± 140 | 4.67 ± 0.65 | 4.38 ± 0.41 | 0.54 ± 0.19 | 3.62 ± 1.97 | 5453.29 ± 1202.14∗∗ ug/L∗h | 5518.78 ± 1256.46∗∗ ug/L∗h | 82 | 664 ± 50.3 | 5.38 ± 0.49 | 4.79 ± 0.36 | 0.33 ± 0.13 | 4.64 ± 2.14 | 268.45 | 
5 | Cc1cc(O)c2c(c1)C(=O)c1cccc(O)c1C2=O [Chrysophanol] |  |  |  |  |  | 257 | 37.6 ± 6.51 | 4.2 ± 0.77 | 3.43 ± 0.4 | 0.88 ± 0.35 | 3.12 ± 1.74 |  |  | 363 | 34.5 ± 4.99 | 3.34 ± 0.21 | 2.93 ± 0.16 | 0.63 ± 0.26 | 2 ± 0.23 |  | AUC0–t ([1]; rat, in vivo, po, 60 g/kg): 99.34 ± 10.12 ug/L∗h; AUC0–∞ ([1]; rat, in vivo, po, 60 g/kg): 103.57 ± 10.09 ug/L∗h; Fr (relative bioavailability) [2, 11]: 142.23%; AUC0–t ([2]; rat, in vivo, po, 60 g/kg): 141.29 ± 27.92∗∗ ug/L∗h; AUC0–∞ ([2]; rat, in vivo, po, 60 g/kg): 148.47 ± 25.04∗∗ ug/L∗h
6 | COC(=O)C1=CO[C@@H](O[C@@H]2O[C@H](CO)[C@@H](O)[C@H](O)[C@H]2O)[C@@H]2C(CO)=CC[C@H]12 [Geniposide] | 147 | 4.57 ± 0.41 | 4.8 ± 0.47 | 1940.63 ± 210.72 | 1958.65 ± 206.96 | 55.7 | 1860 ± 109 | 5.99 ± 0.61 | 4.68 ± 0.57 | 0.58 ± 0.2 | 6.59 ± 2.46 | 5000.36 ± 755.13∗∗ ug/L∗h | 5223.83 ± 746.92∗∗ ug/L∗h |  |  |  |  |  |  | 257.67 | Cmax ([1]; rat, in vivo, 60 g/kg, normal group, oral YCHT, read-out: Cmax): 751 ± 47.7 ng/mL; Tmax [1, 8]: 0.33 ± 0.13 h; half-life [1, 9]: 3.55 ± 0.38 h
7 | COc1cc2ccc(=O)oc2cc1OC [Scoparone] |  |  |  | 2282.77 ± 390.03 | 2347.92 ± 428.69 |  |  |  |  |  |  | 5196.54 ± 513.37∗∗ ug/L∗h | 5197.06 ± 513.33∗∗ ug/L∗h |  |  |  |  |  |  | 227.64 | CL/F ([1]; rat, control rats, oral YCHT 60 g/kg, plasma, n = 6, read-out: CLz/F (converted)): 73.7 mL/min/kg; Cmax ([1]; rat, control rats, oral YCHT 60 g/kg, plasma, n = 6, read-out: Cmax): 939 ± 112 ng/mL; MRT last ([1]; rat, control rats, oral YCHT 60 g/kg, plasma, n = 6, read-out: MRT0–t): 3.19 ± 0.16 h; MRT inf ([1]; rat, control rats, oral YCHT 60 g/kg, plasma, n = 6, read-out: MRT0–∞): 3.51 ± 0.14 h; Tmax ([1]; rat, control rats, oral YCHT 60 g/kg, plasma, n = 6, read-out: Tmax): 0.54 ± 0.1 h; half-life ([1]; rat, control rats, oral YCHT 60 g/kg, plasma, n = 6, read-out: t 1/2 (converted)): 2.14 ± 0.71 h; CL/F [2, 15]: 32.7 mL/min/kg; Cmax [2, 15]: 1770 ± 107 ng/mL; MRT inf [2, 15]: 3.95 ± 0.26 h; MRT last [2, 15]: 3.94 ± 0.26 h; Tmax [2, 15]: 0.33 ± 0.13 h; half-life [2, 15]: 1.58 ± 0.13 h; AUC in model rats higher than in normal rats ([2]; model vs normal rats, oral YCHT): approximately 2 fold
8 | COc1cc(O)c2c(c1)C(=O)c1cc(C)cc(O)c1C2=O [Physcion] |  |  |  | 21.05 ± 4.04 | 22.44 ± 5.54 | 211 | 9.99 ± 2.86 | 5.26 ± 1.3 | 4.07 ± 0.4 | 2.58 ± 1.11 | 3.06 ± 2.37 | 44.98 ± 13.92∗∗ ug/L∗h | 48.47 ± 12.74∗∗ ug/L∗h | 450 | 8.45 ± 1.61 | 3.54 ± 0.49 | 2.88 ± 0.25 | 1.25 ± 0.27 | 2.65 ± 0.99 | 213.68 | 
